Assay results from patent US20230135671A1, “USE OF BIOMARKERS IN THE TREATMENT OF FIBROTIC CONDITIONS” (Boehringer Ingelheim International GmbH, priority 2020, published 2023).

Key:
[1] = clinical trials (i.a. CAPACITY and ASCEND); cited from earlier work
[2] = test system: 14 Nintedanib-responsive genes; test: Gene set variation analysis (GSVA) of the 14-gene set, INMARK trial, IPF patients; assay type: in vivo, human; settings: V5 (12 weeks) vs V2, 150 mg b.i.d., p = 1.35E-05, no significant change with Placebo
Excerpt: (§1) Gene set variance analysis (GSVA): The Bioconductor package Gene Set Variance Analysis version 1.3.2 was applied to score each sample individually for the activity of the 14 genes (LTF, CEACAM6, CTSG, OLFM4, MMP8, CEACAM8, DEFA4, OLR1, SHISA4, ABCA13, EMID1, LMOD1, MPO, and PRTN3). The GSVA function was executed with an expression matrix of the log2 Transcripts Per Million (TPM) with a pseudocount of 0.01 added to each value, the list of 14 genes, and the parameter mx.diff set to true. Statistical differences between the GSVA scores between the different treatment groups were tested using a simple linear model and moderated t-statistics computed by the limma package using an empirical Bayes shrinkage method (Law et al., Genome Biol. 2014 Feb 3;15(2):R29.). Identification of genes altered upon Nintedanib treatment in patients with IPF

[3] = test system: protein-coding genes in whole blood; test: Whole-transcriptome RNA sequencing, differentially expressed genes, INMARK trial, IPF patients; assay type: in vivo, human
Experimental: Blood was sampled into PAXgene RNA tubes (PreAnalytix) and RNA was extracted using the PAXgene Blood RNA kit. Quantity of total RNA was determined by direct absorbance measurement at 260 nm using a spectrophotometer. RNA sequencing libraries were prepared using the Illumina TruSeq Stranded Total RNA Library Prep Kit with Ribo-Zero Globin. Briefly, following removal of ribosomal RNA and globin-encoding mRNA, cleaved RNA fragments were reversely transcribed into first strand cDNA using reverse transcriptase and random primers followed by second strand cDNA synthesis using DNA Polymerase I and RNase H. Strand origin was kept by using Uracil instead of Thymin in the nucleotide mix for […] cDNA synthesis. Following 3′-adenylation and index adapter ligation, cDNA products were purified and enriched by PCR to create the final cDNA library. Library quantity was determined using the Quant-it Pico Green dsDNA reagent and quality was checked by analyzing cDNA fragment size using an Agilent Bioanalyzer 2100 device. Following library dilution to 5 nM, samples were pooled for cluster generation. […]
Quality control: The raw data (single-end read sequences of the captured cDNA fragments) obtained for each sample were assessed for quality using FASTQC v0.11.2. For a successful gene expression analysis of a sample, approximately 50 million reads were required. Reads were mapped to the human reference genome hg38 (GRCh38 Ensembl v. 84) using STAR v2.5.2a. The mapped reads were assessed using RNA-SeQC v1.1.8, whereby mapping statistics (e.g. unique mapping rate, number of detected genes, proportion of reads mapping to protein coding genes) provided the final criteria to decide on usability of the data.
Gene expression intensities were represented as either read counts or TPM values and calculated based on Ensembl v84 gene annotations using subread featureCounts and RSEM version 1.2.31 respectively. Further steps included the use of bamUtil version 1.0.11 and samtools version 1.1 for intermediate calculations such as indexing of bam-files and duplicate read marking. […]

[4] = test system: 14 Nintedanib-responsive genes; test: Whole blood RNA-sequencing of the 14 genes, SENSCIS trial, SSc-ILD patients; assay type: in vivo, human; settings: 24 weeks (V70) and, in some instances, 52 weeks (V90), not following Placebo
Experimental: Blood was sampled into PAXgene RNA tubes (PreAnalytix) and RNA was extracted using the PAXgene Blood RNA kit. Quantity of total RNA was determined by direct absorbance measurement at 260 nm using a spectrophotometer. RNA sequencing libraries were prepared using the Illumina TruSeq Stranded Total RNA Library Prep Kit with Ribo-Zero Globin. […] Library quantity was determined using the Quant-it Pico Green dsDNA reagent and quality was checked by analyzing cDNA fragment size using an Agilent Bioanalyzer 2100 device. […]
Normalization factors to scale the samples based on the raw library sizes were calculated using the weighted trimmed mean of M-values (TMM) method using the default parameters of edgeR’s calcNormFactors function (Robinson and Oshlack, Genome Biol. 2010;11(3):R25.). After these pre-processing steps, the log2 counts per million along with associated weights for each observation were then calculated based on the normalized library sizes from the previous step using limma’s voom function (Law et al., Genome Biol. 2014 Feb 3;15(2):R29.). […] Estimates for the mean log2 fold change between follow-up visit at week 12 (wk12) and baseline (bl) in each treatment arm was calculated as
Following identification of the 14 Nintedanib-responsive genes in the INMARK trial in the context of IPF, expression of these genes was assessed in two additional clinical trials. […]

[5] = test system: 14 Nintedanib-responsive genes; test: GSVA of the 14-gene set, SENSCIS trial, SSc-ILD patients; assay type: in vivo, human; settings: at both visits (24 and 52 weeks), no significant change with Placebo
Excerpt: as §1
Following identification of the 14 Nintedanib-responsive genes in the INMARK trial in the context of IPF, expression of these genes was assessed in two additional clinical trials. […] In both of these trials, whole blood samples were prospectively collected and the expression of the 14 said genes was retrospectively analyzed by whole-transcriptome RNA-sequencing. […] Similar effects were observed when the fold changes in expression were calculated in a per-patient fashion (FIG. 8).

[6] = test system: normal human lung fibroblasts; settings: in vitro; cited from earlier work
[7] = test system: lung fibroblasts from patients with IPF; settings: cited from earlier work
[8] = test system: primary human lung fibroblasts from IPF patients; settings: cited from earlier work
mouse models of IPF = settings: cited from earlier work
IPF patients = settings: multiple clinical trials; cited from earlier work
[9] = adj. p-value <0.05, baseline vs week 12

For Cc1ccc(=O)n(-c2ccccc2)c1 [Pirfenidone, 5-methyl-1-phenyl-2(1H)-pyridone], the “decline of the forced vital capacity (FVC) lung function” value [1] is listed as “efficacy in reducing”.

With COC(=O)c1ccc2c(c1)NC(=O)/C2=C(\Nc1ccc(N(C)C(=O)CN2CCN(C)CC2)cc1)c1ccccc1 [Nintedanib, 3-Z-[1-(4-(N-((4-methyl-piperazin-1-yl)-methylcarbonyl)-N-methyl-amino)-anilino)-1-phenyl-methylene]-6-methoxycarbonyl-2-indolinone] the “change in GSVA score of the 14-gene set” value [2] was “highly significant reduction”, the “number of significantly changed genes that were downregulated” value [3, 9] was 18 and the “number of significantly changed genes that were upregulated” value [3, 9] was “one”. For the same compound, the “number of protein-coding genes with significant differences in expression pre- vs post-treatment” value ([3]; adj. p-value <0.05, baseline vs week 12, 150 mg b.i.d.) was 19, the “expression of most of the 14 genes” value [4] was “downregulated” and the “change in GSVA score of the 14-gene set” value [5] was “significant reduction”. For the same compound, the “PDGFR-a and-β activation and proliferation of normal human lung fibroblasts” value [6] was “inhibit”, the “PDGF-or FGF-2-stimulated migration of lung fibroblasts” value [7] was “attenuated” and the “TGF-β-induced fibroblast to myofibroblast transformation” value [8] was “inhibited”. The total lung collagen (mouse models of IPF; IPF mouse models) was “significant reductions”, the “lymphocyte and neutrophil counts in the bronchoalveolar lavage fluid” value (mouse models of IPF; two different mouse models of IPF) was “significant reductions” and the “annual loss of lung function” value (IPF patients) was “reduce”.
